Results published in patent US9029413B2, “Treatment of viral infections by modulation of host cell metabolic pathways” (The Trustees of Princeton University, priority 2007, dated 2015).
Entries after “also recorded” stand apart in the source; their conditions may differ. Read-outs that look alike come from different tables or passages of the source.

Legend:
[1] = tested on: human cytomegalovirus (HCMV); type: cell-based
class III PI(3)K = class III PI(3)K (Homo sapiens, UniProt Q8NEB9); settings: cited from earlier work
HCMV = settings: TOFA 10 μg/mL
Protocol: (§2) A non-limiting example of an assay that can be performed to assess the effect of a combination of an ACC inhibitor plus Cox inhibitor on HCMV replication follows. […] In each assay, various concentrations of TOFA can be combined with various concentrations of indomethacin and assayed for their effect on virus replication. In one preferred embodiment, a physiological concentration of indomethacin is held constant as the dose of TOFA is increased. Control cultures are treated with no drug, indomethacin alone or the various concentrations of TOFA alone. […] The antiviral effect of indomethacin plus each concentration of TOFA is then compared to the activity of indomethacin alone or the various concentrations of TOFA alone.

host cell = test: Host cell toxicity of the TOFA and indomethacin combination (neutral red dye assay); settings: combined use of TOFA and indomethacin
Protocol: as §2

West Nile virus (WNV) = test: Extracellular viral RNA from WNV-infected Vero cells, real-time quantitative RT-PCR; type: cell-based; settings: TOFA 20 μg/mL
Protocol: (§1) WNV and DV, members of the Flavivirus family of positive-strand RNA viruses, cause severe disease in humans. […] A reduction in the amount extracellular viral RNA or a delay in the accumulation of extracellular viral RNA during the drug treatment period will be indicative of anti-WNV or anti-DV activity. […] TOFA at 20 μg/mL results in ˜10-fold reduction, sometime greater, in accumulation of extracellular viral RNA. The accumulation of extracellular viral RNA is also delay compared to untreated cells.

[2] = cited from earlier work
[3] = tested on: hepatitis B virus (HBV) ayw strain; test: Extracellular HBV DNA from HepG2-2.2.15 cells, real-time quantitative PCR
Protocol: In one aspect, Compounds can be added to HepG2-2.2.15 culture to test whether Compound will reduce the production of secreted HBV from cells utilizing real time quantitative PCR (TaqMan) assay to measure HBV DNA copies. Specifically, confluent cultures of HepG2-2.2.15 cells cultured on 96-well flat-bottomed tissue culture plates and are treated with various concentration of daily doses of Compounds. HBV virion DNA in the culture medium can be assessed 24 hours after the last treatment by quantitative blot hybridization or real time quantitative PCR (TaqMan) assay. […] Lamivudine (3TC) can be used as a positive assay control.
As noted in section 5.4, HepG2-2.2.15 (Sells et al., PNAS 84, 1005-9, 1987) is a stable cell line containing the HBV ayw strain genome. Compounds blocking any step of viral replication and release can be assayed in these cells (Korba & Milman, Antiviral Res. 15:217-28, 1991). […] The medium with the ACC inhibitor is replaced every 24 hours, and media samples are removed after drug treatment for 24, 48, 72 or 96 hours and assayed for the presence of extracellular viral DNA by real-time quantitative PCR. A reduction in the amount extracellular viral DNA or a delay in its accumulation during the treatment period with the ACC inhibitor is indicative of anti-HBV activity. […] Lamivudine (3TC) is used as a positive assay control for inhibition of the production of extracellular HBV DNA (Korba & Gerin, Antivir. Res. 19:55-70, 1992).

HCV replicon = settings: cited from earlier work
coxsackie B3 virus = settings: cited from earlier work
[4] = tested on: HCMV-infected fibroblasts (MRC-5 cells); test: Effect on the metabolome of HCMV-infected fibroblasts (LC-MS/MS); type: cell-based, human; settings: TOFA 20 μg/mL for 48 h
Protocol: Primary fibroblasts (MRC-5 cells) were grown in DMEM (high glucose) containing 7.5% FBS and infected at a multiplicity of 3.0 plaque forming units per cell (control cells were mock infected instead of virally infected). […] Mock-infected cells were then returned to growth medium (+DMSO vehicle) for 48 h. […] Metabolites were extracted into the methanol:water and samples analyzed by LC-MS/MS for a diversity of metabolites as described herein.

Dengue virus (DV) = test: Extracellular viral RNA from DV-infected Vero cells, real-time quantitative RT-PCR; type: cell-based; settings: TOFA 20 μg/mL
Protocol: as §1

Huh7 ET cells = test: Toxicity in Huh7 ET cultures (neutral red dye uptake); settings: TOFA 10 μg/mL or 30 μg/mL
HCV RNA replicon = HCV RNA replicon luciferase (LUC) reporter assay in Huh7 ET cells
[5] = tested on: HCMV, influenza A, HIV-1, HBV or HCV; test: Viral replication with a combination of ACC inhibitor and HMG-CoA reductase inhibitor; type: cell-based; settings: in the presence of a therapeutically effective concentration of the active form of lovastatin
HBV = settings: cited from earlier work
[6] = dose 30 μg/mL, MOI 3.0, 72 hours post infection, two independent experiments, each with its own controls
[7] = dose 60 μg/mL, MOI 3.0, 72 hours post infection

Chain of class III PI(3)K (Q8NEB9 whole entry): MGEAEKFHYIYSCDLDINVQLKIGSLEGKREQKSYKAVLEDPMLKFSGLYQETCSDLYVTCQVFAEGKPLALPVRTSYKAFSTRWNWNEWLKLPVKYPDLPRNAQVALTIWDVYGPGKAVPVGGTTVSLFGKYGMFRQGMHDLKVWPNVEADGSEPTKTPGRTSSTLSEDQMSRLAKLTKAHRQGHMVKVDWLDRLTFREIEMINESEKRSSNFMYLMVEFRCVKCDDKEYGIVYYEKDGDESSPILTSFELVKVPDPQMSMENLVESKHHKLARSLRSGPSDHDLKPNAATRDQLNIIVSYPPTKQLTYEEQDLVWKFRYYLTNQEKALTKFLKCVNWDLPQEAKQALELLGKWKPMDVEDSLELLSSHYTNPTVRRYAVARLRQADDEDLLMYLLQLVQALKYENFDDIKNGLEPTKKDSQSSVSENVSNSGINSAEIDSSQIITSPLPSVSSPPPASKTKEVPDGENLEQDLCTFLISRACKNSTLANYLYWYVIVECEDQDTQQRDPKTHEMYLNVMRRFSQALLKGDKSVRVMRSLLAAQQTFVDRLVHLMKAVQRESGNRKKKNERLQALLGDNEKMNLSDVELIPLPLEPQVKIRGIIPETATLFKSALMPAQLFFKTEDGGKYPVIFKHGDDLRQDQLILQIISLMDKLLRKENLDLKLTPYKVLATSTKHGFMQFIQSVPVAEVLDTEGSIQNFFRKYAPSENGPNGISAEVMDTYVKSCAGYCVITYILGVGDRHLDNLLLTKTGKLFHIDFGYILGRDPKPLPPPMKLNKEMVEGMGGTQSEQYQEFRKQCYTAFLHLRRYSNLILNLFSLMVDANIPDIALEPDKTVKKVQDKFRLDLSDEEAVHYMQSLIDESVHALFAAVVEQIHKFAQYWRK
Protocol for host cells: The toxicity of the diverse ACC inhibitors on host cells was determined by visual inspection of cell lawns and neutral red viability assay.

In the case of `CCOC(=O)C1(CCCCCCOc2ccc(Cl)cc2)CO1` (stereo not drawn) [Etomoxir], the “reduction of HCMV viral replication” value ([1]; Etomoxir 5 μM, AD169, multiplicity of infection 1.0, harvested 96 hours post infection) is reported as “more than 1 log”.

For `Cn1cnc(N)c2ncnc1-2` [3-methyladenine], the “inhibition of class III PI(3)K” value (class III PI(3)K) is given as “inhibits class III PI(3)K” and the “inhibition of HCMV replication (relative infectious units in medium)” value ([1]; 3-methyladenine 5 mM, multiplicity of 0.01 pfu/cell) is given as “has antiviral activities; also recorded: inhibits the replication of human cytomegalovirus”.

With `O=C(c1c2ccccc2cc2ccccc12)N1CCC(N2CCC[C@@H](C(=O)N3CCOCC3)C2)CC1` [CP-640186] the “toxicity on host cells by neutral red viability assay” value (host cells) was “indistinguishable from DMSO control”, the “inhibition of HCMV replication” value ([1]; as stated in the text for FIGS. 18 and 19, dose not given) was “approximately 50 fold” and the “Fold inhibition of viral replication” value [1, 6] was 89.6 fold. The Viral yield [1, 6] was 16000 pfu/mL.

With `CCCCCCCCCCCCCCOc1ccc(C(=O)O)o1` [TOFA, 5-(tetradecyloxy)-2-furoic acid] the “magnitude of the therapeutic effect on HCMV replication” value (HCMV; absence of indomethacin) was roughly 10 fold, the “magnitude of the therapeutic effect on HCMV replication” value (HCMV; presence of indomethacin) was roughly 100 fold and the “host cell toxicity by neutral red dye assay” value (host cell) was “does not increase host cell toxicity”. The “reduction in accumulation of extracellular viral RNA (WNV)” value (West Nile virus (WNV)) was roughly 10 fold, the adverse effects ([2]; rat, in vivo, 100 mg/kg/day) was “no adverse effects are observed” and the teratogenicity ([2]; rat, in vivo, 150 mg/kg/day) was “not teratogenic”. For the same compound, the “oral LD50” value ([2]; rats, oral) was “greater than 5,000 mg/kg”, the “reduction in extracellular HBV DNA” value ([3]; TOFA 3 μg/mL) was “small but statistically significant reduction” and the “reduction in production of extracellular HBV DNA” value ([3]; TOFA 10 μg/mL (range ~3 to ~30-fold)) was roughly 10 fold. The “impairment of production of extracellular HBV DNA” value ([3]; TOFA 30 μg/mL, greater than 100-fold in some cases) was “greater than 10 fold”, the “inhibition of HCV replication” value (HCV replicon; TOFA 5 microg/ml, Huh-7 cells containing an HCV replicon) was “about 3 fold” and the “sensitivity of coxsackie B3 virus” value (coxsackie B3 virus) was “insensitive”. The “NADP+ levels in HCMV-infected cells” value [4] was “falling with TOFA treatment”, the “citrate concentration in HCMV-infected cells” value [4] was “yet greater increases in citrate concentration” and the “malonyl-CoA concentration in HCMV-infected cells” value [4] was “below the limit of detection; also recorded: blocked”. The “reduction in accumulation of extracellular viral RNA (DV)” value (Dengue virus (DV)) was roughly 10 fold, the “decrease in HCMV viral replication” value [1] was “roughly one” and the “decrease in HCMV viral replication” value ([1]; TOFA 20 μg/mL, MOI 3.0, GFP reporter virus, released virus only, 72 hours post infection) was “roughly two”. The “Fold inhibition of viral replication” value [1, 6] was 427.6 fold, the Viral yield [1, 6] was 7700 pfu/mL and the “Fold inhibition of viral replication” value [1, 7] was 82499.0 fold. The Viral yield [1, 7] was 40 pfu/mL, the “host cell toxicity by neutral red dye” value (Huh7 ET cells) was “absence of host cell toxicity” and the “reduction in LUC activity” value (HCV RNA replicon; TOFA 10 μg/mL) was roughly 10 fold. The “reduction in LUC activity” value (HCV RNA replicon; TOFA 30 μg/mL, in some experiments) was no less than 100 fold and the “reduction of the TOFA concentration required to reduce viral growth and/or replication by 10-fold” value [5] was no less than 2 fold.

In the case of `CC[C@H](C)C(=O)O[C@H]1C[C@@H](C)C=C2C=C[C@H](C)[C@H](CC[C@@H]3C[C@@H](O)CC(=O)O3)[C@H]21` [Lovastatin, lovastatin], the “inhibition of replication of HCV replicons” value (HCV replicon; Huh-7 cells) is listed as “partially inhibit”, the “production of infectious HBV particles” value (HBV) is listed as “does not block production of infectious HBV particles” and the “secretion of HBV surface antigen, HBsAg” value (HBV) is listed as “inhibits secretion of the HBV surface antigen”.
